From patent publication US9040713B2, “Methods of managing blood sugar levels and compositions related thereto” (EMORY UNIVERSITY, priority 2010, dated 2015)
“And” between values parts separate entries of the source, which are not always exact repeats. Equal values may be shown once.

Legend:
[1] = molecular target: T1, GST-IRTK (Homo sapiens, UniProt P06213); experiment: Partial proteolysis; type: binding; details: compound 50 μM or ATP-γ-S 5 μM; limited trypsin (or chymotrypsin) digestion
T1 construct: GST-tagged IRTK (GST-IRTK, a.a. 1011-1382); purchased Invitrogen
Procedure: 200 ng GST-IRTK was subjected to limited trypsin digestion in the presence or absence of 50 μM compound with 50 mM tris-HCL (pH8.2) and 20 mM CacCl2. The sample was separated on a SDS-polyacrylamide gel and stained by silver.
Several small molecules bind to the intracellular kinase domain of IR (IRTK) and provoke its activation. DDN might also interact with the IRTK to activate IR. To test this possibility, an UV-absorption spectra analysis was performed using recombinant IRTK. While the GST-tagged IRTK (GST-IRTK, a.a. 1011-1382) had no absorption from 200 nm to 800 nm, addition of DDN, but not its structural related analogue naptho[2,3-d]thiazole-4,9-dione-2-[(4-chlorophenyl)amino] […] Partial proteolysis analysis was also performed to confirm the DDN/IRTK interaction. Recombinant GST-tagged IRTK was incubated with either DMSO or DDN, followed by limited trypsin digestions. In DMSO treatment, GST-IRTK was digested into several smaller fragments of various molecular weights. […] Whereas a band of ˜37 kDa presented strongly in the ATP-γ-S incubated IRTK, a band of ˜30 kDa was found in the control samples but attenuated in the ATP-γ-S-treated sample.
To evaluate if 4524-E7 directly binds to the IR kinase domain, a partial proteolysis assay was performed with recombinant IRTK domain using trypsin or chymotrypsin, which was used before to characterize the interaction between IR and its small molecular ligand DAQ B1. Recombinant GST-tagged IRTK with either DMSO, 50 μM 4524-E7 or ATP-γ-S, were incubated and followed by limited trypsin or chymotrypsin digestion. Under DMSO treatment, GST-IRTK was quickly digested by both trypsin and chymotrypsin into several small fragments with various molecular weights (FIG. 10B). […] To test whether 4524-E7 selectively elevates IR kinase activities, an in vitro IR, IGFR, and EGFR kinase assays were performed using histone as the substrate.

[2] = molecular target: T1, GST-IRTK; experiment: IR in vitro kinase assay (histone H2B phosphorylation); type: biochemical; details: different concentrations of compound
Procedure: Parental CHO cells were used as a negative control (bottom panel). The fluorescence-labeled cells were analyzed on flow cytometry. (B) DDN binds to IRTK. UV-visible spectra were scanned from 200 to 800 nm for IRTK fragment in the presence of DDN or its analogue. When DDN binds to IRTK, it elicits the absorption alteration at 560 and 602 nm. (C) DDN protects IRTK from proteolysis. GST-IRTK was subjected to limited trypsin digestion in the presence of DDN (50 μM), ATP-γ-S (5 μM) or both. The reaction mixture was resolved by SDS-PAGE, followed by silver staining (D) DDN increases IRTK activity in vitro.
Parental CHO cells were used as a negative control (Bottom panel). The fluorescence-labeled cells were analyzed on flow cytometry. (B) 4524-E7 protects IRTK from proteolysis. GST-IRTK was subjected to limited trypsin or chymotrypsin digestion in the presence of 4524-E7 (50 μM), ATPyS (5 μM) or both at 37° C. for 5 min. The reaction mixture was resolved by SDS-PAGE, followed by silver staining Cleaved fragments were asterisked. (C) 4524-E7 increases IRTK activity in vitro. Recombinant GST-IRTK, GST-IGFRTK, and GST-EGFRTK were incubated with different concentrations of 4524-E7 or 10 μM 2—NH2-NQ and the kinase activity was examined by monitoring the phosphorylation of histone H2B. (E) In vitro kinase activity of various IRTK/IGF-1R kinase hybrids. The GFP-tagged kinases were expressed in HEK293, immunoprecipitated and incubated with different concentrations of 4524-E7 as indicated. […] Expressions of the kinases were also verified (lower panel).
Recombinant GST-IRTK was incubate with 50 mM tris-HCl (pH7.4), 10 mM MgCl2, and 50 μM ATP with different concentration of compound for 15 min at 25° C. Histone H2B (0.35 μg/ml) and [γ32P]ATP (0.25 μCi/ul) were added and the samples were further incubated for 10 min. The sample was separated on a SDS-polyacrylamide gel and autoradiographed.

[3] = molecular target: IR (Homo sapiens, UniProt P06213); experiment: Immunoblotting of IR phosphorylation and downstream signaling in CHO-IR cells; type: cell-based; design: expressed in transfected cells; host or cells: CHO (CHO-IR, gift from Dr. Nicholas Webster, UCSD)
Procedure: The cell lysates were analyzed by immunoblotting with anti-phospho-IR antibodies, or immunoprecipitated by PY20 and analyzed using anti-IR and anti-IRS-1, respectively. […] The cell lysates were analyzed by immunoblotting with anti-pIGF-1R and anti-pEGFR. […]
A cell-based ELISA assay was developed with an IR stably transfected Chinese Hamster Ovary (CHO-IR) cell line. […] The cell lysates were subjected to the sandwich ELISA using immobilized anti-phosphotyrosine antibody and anti-IR antibody.

[4] = system: 3T3-L1 adipocytes; experiment: Fatty acid oxidation assay; type: cell-based, mouse; details: 100 nM insulin or 5 μM 4524-E7; normalized to DMSO-treated cells
Procedure: (A) 4524-E7 activates IR phosphorylation and its downstream signaling in 3T3-L1 adipocytes. […] The cells were lysed, and immunoprecipitated with PY20, and followed by Western blot using specific antibodies. (B) 4524-E7 stimulates glucose uptake in 3T3-L1 adipocytes. […] [3H]2-deoxyglucose was added, and the cells were further incubated for 10 min. The amount of [3H]2-deoxyglucose taken by adipocytes was measured. (C) 4524-E7 inhibits fatty acid oxidation. […] Results were normalized to DMSO-treated cells and expressed as mean±S.E.M. (*: P<0.05; **:P<0.01, Student's t-test, n=3). (D) IR knockdown in adipocytes decreases IR signaling by 4524-E7. […] Cells lysates were collected and analyzed by Western blot. (E) The glucose uptake induced by 4524-E7 in p85α knockout MEF cells. […] The uptaken [3H] 2-deoxyglucose was monitored by liquid scintillation counter. Results were expressed as mean±S.E.M. (*: P<0.05; **:P<0.01, Student's t-test, n=3).
Fatty acid oxidation was measured by determining the production of 3H2O from [9, 10-3H] palmitate. Differentiated NIH3T3-L1 were plated (0.5×10^5 cell per well) in a 12-well plate for 1 day. […] After incubation, the medium was removed and extracted with Chloroform/Methanol (2:1), and the aqueous phase containing 3H2O was collected and used for radioactivity measurement in a liquid scintillation counter.

T1 sequence (P06213 1011-1382): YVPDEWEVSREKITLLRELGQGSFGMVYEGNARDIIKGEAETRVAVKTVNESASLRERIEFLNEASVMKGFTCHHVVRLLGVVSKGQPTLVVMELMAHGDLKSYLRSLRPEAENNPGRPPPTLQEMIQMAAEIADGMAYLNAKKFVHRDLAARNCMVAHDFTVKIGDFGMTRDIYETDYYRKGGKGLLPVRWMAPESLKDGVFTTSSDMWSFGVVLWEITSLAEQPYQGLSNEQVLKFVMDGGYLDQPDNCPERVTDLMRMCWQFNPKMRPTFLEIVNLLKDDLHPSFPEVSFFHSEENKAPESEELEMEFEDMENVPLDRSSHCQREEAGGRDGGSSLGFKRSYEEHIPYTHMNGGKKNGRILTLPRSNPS
Chain of IR (P06213 763-1382 limits assumed): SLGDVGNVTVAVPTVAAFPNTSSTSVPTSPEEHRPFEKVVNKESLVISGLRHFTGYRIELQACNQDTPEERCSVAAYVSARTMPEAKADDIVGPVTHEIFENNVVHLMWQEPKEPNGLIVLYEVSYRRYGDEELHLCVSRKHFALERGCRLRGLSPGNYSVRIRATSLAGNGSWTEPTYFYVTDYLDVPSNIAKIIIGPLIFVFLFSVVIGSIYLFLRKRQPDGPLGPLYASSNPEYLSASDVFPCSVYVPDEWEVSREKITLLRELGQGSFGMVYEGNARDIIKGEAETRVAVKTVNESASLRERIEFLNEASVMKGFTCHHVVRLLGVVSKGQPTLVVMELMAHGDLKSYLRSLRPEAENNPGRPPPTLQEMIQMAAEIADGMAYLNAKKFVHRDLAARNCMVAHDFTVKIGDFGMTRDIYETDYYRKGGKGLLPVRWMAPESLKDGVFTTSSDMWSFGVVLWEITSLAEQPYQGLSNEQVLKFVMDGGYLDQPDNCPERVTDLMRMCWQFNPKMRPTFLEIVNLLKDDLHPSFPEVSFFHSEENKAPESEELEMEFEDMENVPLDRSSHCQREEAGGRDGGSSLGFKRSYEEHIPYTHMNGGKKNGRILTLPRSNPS
Chain of IR (P06213 28-758 limits assumed): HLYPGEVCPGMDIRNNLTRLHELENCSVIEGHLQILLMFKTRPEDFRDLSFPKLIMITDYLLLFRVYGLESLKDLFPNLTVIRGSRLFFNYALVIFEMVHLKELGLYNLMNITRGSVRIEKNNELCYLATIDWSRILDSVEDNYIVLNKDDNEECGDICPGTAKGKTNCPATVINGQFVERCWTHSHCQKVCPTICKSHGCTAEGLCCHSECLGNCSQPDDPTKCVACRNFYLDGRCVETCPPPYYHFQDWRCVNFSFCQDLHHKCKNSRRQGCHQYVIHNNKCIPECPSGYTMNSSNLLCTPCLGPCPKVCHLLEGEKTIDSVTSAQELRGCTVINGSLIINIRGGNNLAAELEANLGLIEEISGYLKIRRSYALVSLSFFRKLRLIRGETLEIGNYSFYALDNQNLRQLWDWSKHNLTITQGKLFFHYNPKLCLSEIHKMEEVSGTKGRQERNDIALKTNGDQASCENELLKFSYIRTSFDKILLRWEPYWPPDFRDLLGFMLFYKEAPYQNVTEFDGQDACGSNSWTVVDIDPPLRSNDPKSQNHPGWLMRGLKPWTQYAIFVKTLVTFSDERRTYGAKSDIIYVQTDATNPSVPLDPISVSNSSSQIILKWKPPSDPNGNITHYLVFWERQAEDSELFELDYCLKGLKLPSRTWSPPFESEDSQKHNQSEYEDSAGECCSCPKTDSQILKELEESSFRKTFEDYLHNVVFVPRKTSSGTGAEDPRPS

## O=C1c2ccccc2C(=O)C2SC(Nc3ccc(Cl)cc3)=NC12 (stereo not drawn) [4524-E7, 2-((4-chlorophenyl)amino)naphtho[2,3-d]thiazole-4,9(3aH,9aH)-dione]
[1]
  protection of IRTK from proteolysis: more intact IRTK was observed
[2]
  IRTK kinase activity (histone H2B phosphorylation): greatly enhanced
[3]
  concentration activating IR cascade strongly and specifically: 1 to 2.5 µM
[3]; 5 μM, 15 min
  tyrosine phosphorylation on the IR: increased the tyrosine phosphorylation on the IR
[3]; 5 μM, 30 min
  IR tyrosine phosphorylation: triggered IR tyrosine phosphorylation
[3]; 15 min
  concentration at which Erk1/2 activation was detected: ≥ 5 µM
  concentration elevating Akt phosphorylation: 0.5 µM
[4]
  lipid oxidation: ~50 % of the control

## CC(=O)Oc1ccc(OC(C)=O)c2c1C(=O)C(Cl)=C(Cl)C2=O [DDN, 5,8-diacetyloxy-2,3-dichloro-1,4-naphthoquinone]
[1]
  protection of IRTK from proteolysis: protected IRTK against trypsin digestion
[2]
  IRTK kinase activity (histone H2B phosphorylation): activated the recombinant IRTK to phosphorylate histone H2B
[3]; 5 μM
  time at which IR phosphorylation starts: 5 to 15 min and 5 min
[3]; 5 μM, 15 min
  tyrosine phosphorylation of IRS-1: also increased
  tyrosine phosphorylation of the IR β subunit in Y1146 and Y1158/1162/1163: strongly stimulated
[3]; DDN or CSN 30 min, insulin 15 min
  concentration stimulating the IR signal cascades: 5 µM

## insulin: insulin, used as positive control
[4]
  lipid oxidation: ~70 % of the control
